# Numbers after ± are expanded uncertainties.
# Legend:
# [1] = Crystal; DTA
# [2] = Molar enthalpy of transition or fusion; details: Crystal; DSC
smiles,measurement,setting,value
N=C(N)N.O=[N+]([O-])O [guanidine nitrate],Normal melting temperature,[1],214.02 ± 2 °C
same,Molar enthalpy of transition or fusion,[2],6.04 ± 0.146 kcal/mol
